Experimental data taken from ChEMBL document CHEMBL1821708, “Piperazinyl quinolines as chemosensitizers to increase fluconazole susceptibility of Candida albicans clinical isolates” (Bioorg Med Chem Lett, 2011).
In brackets after ≈: the same amount, converted by molar mass.

What was measured:
Candida albicans [1] = test: Growth inhibition of Candida albicans isolate CaCi-2 assessed as relative fungal growth in presence of Fluconazole after 48 hrs by Almar blue fluorometry; type: functional, organism-based; conditions: isolate CaCi-2, 48 h
Candida albicans [2] = test: Growth inhibition of Candida albicans isolate CaCi-8 assessed as relative fungal growth in presence of Fluconazole after 48 hrs by Almar blue fluorometry; type: functional, organism-based; conditions: isolate CaCi-8, 48 h
[3] = Aqueous solubility of the compound in phosphate buffered saline; type: physicochemical
Candida albicans [4] = test: Antifungal activity against Candida albicans CaCi-2 clinical isolate; type: functional
Candida albicans [5] = test: Antifungal activity against Candida albicans CaCi-8 clinical isolate; type: functional
[6] = Inhibition of HSP90 signaling pathway in Candida albicans
[7] = Inhibition of calcineurin signaling pathway in Candida albicans
Candida albicans [8] = test: Growth inhibition of Candida albicans isolate CaCi-2 at 1 uM after 48 hrs by Almar blue fluorimetry in presence of fluconazole; type: functional; conditions: isolate CaCi-2, 48 h, read-out: GI
Candida albicans [9] = test: Growth inhibition of Candida albicans isolate CaCi-8 at 1 uM after 48 hrs by Almar blue fluorometry in presence of Fluconazole; type: functional; conditions: isolate CaCi-8, 48 h, read-out: GI

| SMILES | IC50 (Candida albicans [1]) | IC50 (Candida albicans [2]) | other results |
| --- | --- | --- | --- |
| O=C(Nc1ccc(Cl)cc1)N1CCN(c2ccnc3cc(Cl)ccc23)CC1 | 4.2 µM | 2.3 µM |  |
| O=C(c1ccc(Cl)cc1)N1CCN(c2ccnc3ccccc23)CC1 | 5.7 µM | 14.7 µM |  |
| COc1ccc2c(N3CCN(C(=O)c4ccc(Cl)cc4)CC3)ccnc2c1 | 4.8 µM | 13.7 µM |  |
| O=C(c1ccc(Cl)cc1)N1CCN(c2ncccn2)CC1 | 7.1 µM | 18.1 µM |  |
| Cn1ccnc1N1CCN(C(=O)c2ccc(Cl)cc2)CC1 | 6.2 µM | > 26 µM |  |
| O=C(c1ccc(Cl)cc1)N1CCN(c2ncnc3ccccc23)CC1 | 4.8 µM | 11 µM |  |
| O=C(c1ccc(Cl)c(Cl)c1)N1CCN(c2ccnc3cc(Cl)ccc23)CC1 | 1 µM | 2.1 µM |  |
| Cc1cc(N2CCN(C(=O)c3ccc(Cl)cc3)CC2)c2ccccc2n1 | 7.3 µM | > 26 µM |  |
| O=C(c1ccc(Cl)cc1)N1CCN(c2ccnc3ccc(Cl)cc23)CC1 | 2.4 µM | 6.3 µM |  |
| O=C(c1ccc(Cl)cc1)N1CCN(c2nc3ccccc3s2)CC1 | 5.5 µM | 10.8 µM |  |
| O=C(c1ccc(Cl)cc1)N1CCN(c2ccncc2)CC1 | 7.3 µM | > 26 µM |  |
| CCCC(=O)N1CCN(c2ccnc3cc(Cl)ccc23)CC1 | 6.3 µM | 15 µM |  |
| CC(C)C(=O)N1CCN(c2ccnc3cc(Cl)ccc23)CC1 | 7.2 µM | > 26 µM |  |
| O=C(c1ccc(Cl)cc1)N1CCN(c2nccs2)CC1 | 6.9 µM | 18.9 µM |  |
| O=C(c1ccccc1)N1CCN(c2ccnc3cc(Cl)ccc23)CC1 | 4.4 µM | 6.1 µM |  |
| O=C(c1csc2ccccc12)N1CCN(c2ccnc3cc(Cl)ccc23)CC1 | 1.9 µM | 4 µM | solubility ([3]; buffer): soluble |

| SMILES | IC50 (Candida albicans [1]) | IC50 (Candida albicans [2]) | other results |
| --- | --- | --- | --- |
| COc1ccc(C(=O)N2CCN(c3ccnc4cc(Cl)ccc34)CC2)cc1 | 5.3 µM | 16.8 µM |  |
| Cc1ccc(N2CCN(C(=O)c3ccc(Cl)cc3)CC2)nn1 | 8.5 µM | 20.6 µM |  |
| O=C(c1ccc(Cl)cc1)N1CCN(c2cnccn2)CC1 | 9 µM | 22.2 µM |  |
| O=C(c1ccc(Cl)cc1)N1CCN(c2cccnc2)CC1 | 7.3 µM | > 26 µM |  |
| O=C(c1cccc(Cl)c1)N1CCN(c2ccnc3cc(Cl)ccc23)CC1 | 4.4 µM | 7.8 µM |  |
| O=C(c1ccccc1Cl)N1CCN(c2ccnc3cc(Cl)ccc23)CC1 | 7.3 µM | 14.1 µM |  |
| O=C(C1CCCC1)N1CCN(c2ccnc3cc(Cl)ccc23)CC1 | 3.6 µM | 5.3 µM |  |
| O=C(c1ccc(F)cc1)N1CCN(c2ccnc3cc(Cl)ccc23)CC1 | 3.6 µM | 4.2 µM |  |
| O=C(c1ccc(Cl)cc1)N1CCN(c2ccc(Cl)cc2)CC1 | 8.7 µM | 19 µM |  |
| OC(Cn1cncn1)(Cn1cncn1)c1ccc(F)cc1F [FLUCONAZOLE] |  |  | MIC (Candida albicans [4]): 6.5 µM (≈ 1.99 µg/mL); MIC (Candida albicans [5]): 26 µM (≈ 7.96 µg/mL) |
| O=C(c1ccc(Cl)cc1)N1CCN(c2ccnc3cc(Cl)ccc23)CC1 | 0.7 µM | 1.3 µM | solubility ([3]; phosphate buffered saline, read-out: solubility): < 5 µM; IC50 [6]: > 26 µM; IC50 [7]: > 26 µM; inhibition of growth at 1 µM (Candida albicans [8]): 97%; inhibition of growth at 1 µM (Candida albicans [9]): 97% |
| O=C(c1ccc(Cl)cc1)N1CCN(c2ccccn2)CC1 | > 10 µM | 24 µM |  |
| O=C(C1CCCCC1)N1CCN(c2ccnc3cc(Cl)ccc23)CC1 | 1.7 µM | 4 µM |  |
| O=C(c1ccc(Cl)nc1)N1CCN(c2ccnc3cc(Cl)ccc23)CC1 | 6.7 µM | 10.9 µM | solubility ([3]; buffer): soluble |
| Cc1ccc(C(=O)N2CCN(c3ccnc4cc(Cl)ccc34)CC2)cc1 | 2.3 µM | 3.1 µM |  |
| O=C(c1ccc(Cl)cn1)N1CCN(c2ccnc3cc(Cl)ccc23)CC1 | 4.9 µM | 4.1 µM | solubility ([3]; buffer): soluble |
